The data set has as its target ATXN2. Briefly: mouse, dose not given. To be noted: ASO.

HELM strings list units from the 5' end as sugar, base in round brackets, then linkage (d deoxyribose, r ribose, m 2'-O-methyl, p phosphodiester). Strings are as the collection lists them; they lack the last nucleoside at the 3' end of the tested compound. [moe] = 2'-O-(2-methoxyethyl) (MOE); [sp] = phosphorothioate linkage; [m5C] = 5-methylcytosine

For “RNA1{[moe]([m5C])[sp].[moe](T)p.[moe](T)p.[moe](T)p.[moe](T)p.d([m5C])[sp].d(T)[sp].d([m5C])[sp].d(A)[sp].d(T)[sp].d(G)[sp].d(T)[sp].d(G)[sp].d([m5C])[sp].d(G)[sp].[moe](G)p.[moe]([m5C])p.[moe](A)[sp].[moe](T)}$$$$ (last 3' nucleoside missing)”, the 3 h FOB score amounted to 6.25 score 0-7. Next, “RNA1{[moe]([m5C])[sp].[moe](T)p.[moe](T)p.[moe]([m5C])p.[moe](T)[sp].d([m5C])[sp].d(T)[sp].d(A)[sp].d(T)[sp].d(T)[sp].d(T)[sp].d([m5C])[sp].d(T)[sp].[moe](T)p.[moe](T)p.[moe](G)[sp].[moe](T)}$$$$ (last 3' nucleoside missing)”: 0 score 0-7; “RNA1{[moe]([m5C])[sp].[moe](T)p.[moe](T)p.[moe]([m5C])p.[moe](T)p.d(G)[sp].d([m5C])[sp].d(T)[sp].d(A)[sp].d(A)[sp].d([m5C])[sp].d(T)[sp].d(G)[sp].d(G)[sp].d(T)[sp].[moe](T)p.[moe](T)p.[moe](G)[sp].[moe]([m5C])}$$$$ (last 3' nucleoside missing)”: 2.5 score 0-7. “RNA1{[moe]([m5C])[sp].[moe](T)p.[moe](T)p.[moe]([m5C])p.[moe](T)p.d([m5C])[sp].d(T)[sp].d(A)[sp].d(T)[sp].d(T)[sp].d(T)[sp].d([m5C])[sp].d(T)[sp].d(T)[sp].d(T)[sp].[moe](G)p.[moe](T)p.[moe]([m5C])[sp].[moe]([m5C])}$$$$ (last 3' nucleoside missing)” displayed a 3 h FOB score of 1 score 0-7. Regarding “RNA1{[moe]([m5C])[sp].[moe](T)p.[moe]([m5C])p.[moe](T)p.[moe](A)[sp].d(T)[sp].d(T)[sp].d(T)[sp].d([m5C])[sp].d(T)[sp].d(T)[sp].d(T)[sp].d(G)[sp].[moe](T)p.[moe]([m5C])p.[moe]([m5C])[sp].[moe](A)}$$$$ (last 3' nucleoside missing)”, the 3 h FOB score was 3.5 score 0-7. The substance “RNA1{[moe]([m5C])[sp].[moe](T)p.[moe]([m5C])p.[moe](T)p.[moe](A)p.d(T)[sp].d(T)[sp].d(T)[sp].d([m5C])[sp].d(T)[sp].d(T)[sp].d(T)[sp].d(G)[sp].d(T)[sp].d([m5C])[sp].[moe]([m5C])p.[moe](A)p.[moe](G)[sp].[moe](G)}$$$$ (last 3' nucleoside missing)” showed a 3 h FOB score of 3.5 score 0-7.

In turn, “RNA1{[moe]([m5C])[sp].[moe](T)p.[moe]([m5C])p.[moe](T)p.[moe]([m5C])[sp].d([m5C])[sp].d(A)[sp].d(T)[sp].d(T)[sp].d(A)[sp].d(T)[sp].d(T)[sp].d(T)[sp].[moe]([m5C])p.[moe](T)p.[moe](T)[sp].[moe]([m5C])}$$$$ (last 3' nucleoside missing)” came in with a 3 h FOB score of 0 score 0-7. “RNA1{[moe]([m5C])[sp].[moe](T)p.[moe]([m5C])p.[moe](T)p.[moe]([m5C])[sp].d([m5C])[sp].d(A)[sp].d(T)[sp].d(T)[sp].d(A)[sp].d(T)[sp].d(T)[sp].d(T)[sp].d([m5C])[sp].d(T)[sp].[moe](T)p.[moe]([m5C])p.[moe](A)[sp].[moe]([m5C])}$$$$ (last 3' nucleoside missing)”: the 3 h FOB score was determined as 5.75 score 0-7. “RNA1{[moe]([m5C])[sp].[moe](T)p.[moe]([m5C])p.[moe](T)p.[moe]([m5C])p.[moe]([m5C])p.d(A)[sp].d(T)[sp].d(T)[sp].d(A)[sp].d(T)[sp].d(T)[sp].d(T)[sp].d([m5C])[sp].d(T)[sp].d(T)[sp].[moe]([m5C])p.[moe](A)[sp].[moe]([m5C])}$$$$ (last 3' nucleoside missing)” had a 3 h FOB score of 2 score 0-7. Regarding “RNA1{[moe]([m5C])[sp].[moe](T)p.[moe]([m5C])p.[moe](T)p.[moe]([m5C])p.d([m5C])[sp].d(A)[sp].d(T)[sp].d(T)[sp].d(A)[sp].d(T)[sp].d(T)[sp].d(T)[sp].d([m5C])[sp].d(T)[sp].[moe](T)p.[moe]([m5C])p.[moe](A)[sp].[moe]([m5C])}$$$$ (last 3' nucleoside missing)”, the 3 h FOB score amounted to 4 score 0-7.

As for “RNA1{[moe]([m5C])[sp].[moe](T)p.[moe]([m5C])p.[moe](T)p.d([m5C])[sp].d([m5C])[sp].d(A)[sp].d(T)[sp].d(T)[sp].d(A)[sp].d(T)[sp].d(T)[sp].d(T)[sp].d([m5C])[sp].[moe](T)p.[moe](T)p.[moe]([m5C])p.[moe](A)[sp].[moe]([m5C])}$$$$ (last 3' nucleoside missing)”, the 3 h FOB score is 3 score 0-7.

In the case of “RNA1{[moe]([m5C])[sp].[moe](T)p.[moe]([m5C])p.[moe]([m5C])p.[moe](A)[sp].d(T)[sp].d(T)[sp].d(A)[sp].d(T)[sp].d(T)[sp].d(T)[sp].d([m5C])[sp].d(T)[sp].[moe](T)p.[moe]([m5C])p.[moe](A)[sp].[moe]([m5C])}$$$$ (last 3' nucleoside missing)”, the 3 h FOB score worked out at 3.5 score 0-7. Next, “RNA1{[moe]([m5C])[sp].[moe](T)p.[moe]([m5C])p.[moe]([m5C])p.[moe](A)p.d(T)[sp].d(T)[sp].d(A)[sp].d(T)[sp].d(T)[sp].d(T)[sp].d([m5C])[sp].d(T)[sp].d(T)[sp].d([m5C])[sp].[moe](A)p.[moe]([m5C])p.[moe](G)[sp].[moe](T)}$$$$ (last 3' nucleoside missing)”: 1 score 0-7. The substance “RNA1{[moe]([m5C])[sp].[moe](T)p.[moe]([m5C])p.[moe]([m5C])p.[moe](T)[sp].d(A)[sp].d(T)[sp].d([m5C])[sp].d(A)[sp].d(T)[sp].d([m5C])[sp].d(A)[sp].d(T)[sp].[moe](T)p.[moe](T)p.[moe](T)[sp].[moe]([m5C])}$$$$ (last 3' nucleoside missing)” had a 3 h FOB score of 0 score 0-7.

Substance “RNA1{[moe]([m5C])[sp].[moe](T)p.[moe]([m5C])p.[moe]([m5C])p.[moe](T)p.d(A)[sp].d(T)[sp].d([m5C])[sp].d(A)[sp].d(T)[sp].d([m5C])[sp].d(A)[sp].d(T)[sp].d(T)[sp].d(T)[sp].[moe](T)p.[moe]([m5C])p.[moe]([m5C])[sp].[moe](A)}$$$$ (last 3' nucleoside missing)” gave a 3 h FOB score of 1 score 0-7. Consider “RNA1{[moe]([m5C])[sp].[moe]([m5C])[sp].[moe]([m5C])[sp].[moe](A)[sp].[moe](A)[sp].d(A)[sp].d(G)[sp].d(G)[sp].d(G)[sp].d(T)[sp].d(T)[sp].d(A)[sp].d(A)[sp].d(T)[sp].d(T)[sp].[moe](A)[sp].[moe](G)[sp].[moe](G)[sp].[moe](A)}$$$$ (last 3' nucleoside missing)”, for which the 3 h FOB score was found to be 7 score 0-7. “RNA1{[moe]([m5C])[sp].[moe]([m5C])[sp].[moe]([m5C])[sp].[moe](A)[sp].[moe](T)[sp].d(A)[sp].d([m5C])[sp].d(G)[sp].d([m5C])[sp].d(G)[sp].d(G)[sp].d(T)[sp].d(G)[sp].d(A)[sp].d(A)[sp].[moe](T)[sp].[moe](T)[sp].[moe]([m5C])[sp].[moe](T)}$$$$ (last 3' nucleoside missing)” came in with a 3 h FOB score of 7 score 0-7. The substance “RNA1{[moe]([m5C])[sp].[moe]([m5C])p.[moe](A)p.[moe](G)p.[moe](A)p.d(A)[sp].d(A)[sp].d(T)[sp].d([m5C])[sp].d(T)[sp].d(G)[sp].d(T)[sp].d(A)[sp].d(A)[sp].d(A)[sp].[moe](T)p.[moe](T)p.[moe]([m5C])[sp].[moe](T)}$$$$ (last 3' nucleoside missing)” displayed a 3 h FOB score of 3 score 0-7.

These data come from the OligoGym collection.
